How the values were obtained:
Mus musculus [1] = assay: In vivo inhibitory activity (1 mg/kg) against endotoxin-induced hemoconcentration in ICR mice with endotoxin concentration of 55 mg/kg; assay type: functional
Rattus norvegicus = assay: In vivo inhibitory activity against PAF-induced hypertension in SD rats by ip administration; assay type: functional
Cavia porcellus [2] = assay: In vivo inhibitory activity against PAF-induced bronchoconstriction in guinea pigs at a dose of 0.01 mg/kg; assay type: functional
Cavia porcellus [3] = assay: In vivo PAF-induced bronchoconstriction in guinea pigs at a dose of 0.01 mg/kg; assay type: functional
Mus musculus [4] = assay: Survival ratio of ICR mice by the administration (0.3 mg/kg) along with endotoxin (55mg/Kg, ip) after 42h; assay type: functional
Mus musculus [5] = assay: Survival ratio of ICR mice by the administration (0.3 mg/kg) along with endotoxin (55mg/Kg, ip) after 18 h; assay type: functional
Cavia porcellus [6] = assay: In vivo inhibitory activity against platelet aggregation in guinea pigs; assay type: functional, organism-based
Mus musculus [7] = assay: Survival ratio of ICR mice by the administration (0.3 mg/kg) along with endotoxin (55mg/Kg, ip) after 66h; assay type: functional
Mus musculus [8] = assay: Survival ratio of ICR mice by the administration (0.3 mg/kg) along with endotoxin (55mg/Kg, ip) after 24 hr; assay type: functional
Mus musculus [9] = assay: Survival ratio of ICR mice by the administration (0.3 mg/kg) along with endotoxin (55mg/Kg, ip) after 48 hr; assay type: functional
Mus musculus [10] = assay: Survival ratio of ICR mice by the administration (0.3 mg/kg) along with endotoxin (55mg/Kg, ip) after 2 hr; assay type: functional
Mus musculus [11] = assay: Survival ratio of ICR mice by the administration (0.3 mg/kg) along with endotoxin (55mg/Kg, ip) after 1 hr; assay type: functional
[12] = In vitro inhibitory activity against PAF-induced aggregation of rabbit platelets

SMILES | Change (Mus musculus [1]) [%] | Change of hemoconcentration (Mus musculus [1]) | ED50 (Rattus norvegicus) [mg/kg] | inhibition in vivo at 0.01 mg/kg (Cavia porcellus [2]) [%] | Absolute (Cavia porcellus [3]) [%] | further results
CCCCCCCCCCCCCC(=O)OC(CCCCCCCCCCC)CC(=O)OC1C(NC(=O)CC(CCCCCCCCCCC)OC(=O)CCCCCCCCCCC)C(OC2CC(OC(=O)CC(O)CCCCCCCCCCC)C(NC(=O)CC(O)CCCCCCCCCCC)C(O)O2)OC(CO)C1OP(=O)(O)O.CCCCCCCCCCCCCCCCNC(=O)OC[C@@H]1C[C@@H](COC(=O)N(Cc2cccc[n+]2CC)C(C)=O)S1.[Cl-] (stereo unspecified) | 53 | 12.7 | – | – | – | –
CCCCCCCCCCCCCC(=O)OC(CCCCCCCCCCC)CC(=O)O[C@@H]1[C@@H](NC(=O)CC(CCCCCCCCCCC)OC(=O)CCCCCCCCCCC)[C@H](O[C@@H]2C[C@H](OC(=O)CC(O)CCCCCCCCCCC)[C@@H](NC(=O)CC(O)CCCCCCCCCCC)[C@@H](O)O2)O[C@H](CO)[C@H]1OP(=O)(O)O.CCCCCCCCCCCCCCCCCCNC(=O)OC[C@H]1C[C@H](COC(=O)N(Cc2cccc[n+]2CC)C(C)=O)C1.[I-] (stereo partly specified) | 25 | 5.9 | – | – | – | –
CCCCCCCCCCCCCCCCCCNC(=O)OCC(COC(=O)N(Cc1cccc[n+]1CC)C(C)=O)OC.[Cl-] (stereo unspecified) [CV-6209] | 48 | – | 0.35 | 87 | 12 | –
CCCCCCCCCCCCCCCCCCNC(=O)OC[C@H]1C[C@H](COC(=O)N(Cc2cccc[n+]2CC)C(C)=O)C1.[I-] | – | – | 0.58 | 87 | 12 | Survival ratio (Mus musculus [4]): 40; Survival ratio (Mus musculus [5]): 80; IC50 (Cavia porcellus [6]): 56 nM; Survival ratio (Mus musculus [7]): 27; Survival ratio (Mus musculus [8]): 73; Survival ratio (Mus musculus [9]): 33; Survival ratio (Mus musculus [10]): 100; Survival ratio (Mus musculus [11]): 100
CCCCCCCCCCCCCC(=O)OC(CCCCCCCCCCC)CC(=O)OC1C(NC(=O)CC(CCCCCCCCCCC)OC(=O)CCCCCCCCCCC)C(OC2CC(OC(=O)CC(O)CCCCCCCCCCC)C(NC(=O)CC(O)CCCCCCCCCCC)C(O)O2)OC(CO)C1OP(=O)(O)O.CCCCCCCCCCCCCCCCCCNC(=O)OC[C@@H]1C[C@@H](COC(=O)N(Cc2cccc[n+]2CC)C(C)=O)N1C(C)=O.[Cl-] (stereo unspecified) | 55 | 13.1 | – | – | – | –
CCCCCCCCCCCCCCCCCCNC(=O)OC[C@H]1C[C@H](COC(=O)N(Cc2cccc[n+]2CC)C(C)=O)N1C(C)=O.[Cl-] | – | – | 0.33 | 95 | 5 | Survival ratio (Mus musculus [4]): 53; Survival ratio (Mus musculus [5]): 73; IC50 (Cavia porcellus [6]): 29 nM; Survival ratio (Mus musculus [7]): 53; Survival ratio (Mus musculus [8]): 73; Survival ratio (Mus musculus [9]): 53; Survival ratio (Mus musculus [10]): 100; Survival ratio (Mus musculus [11]): 100
CCCCCCCCCCCCCCCCCCNC(=O)OC[C@H]1C[C@H](COC(=O)N(Cc2cccc[n+]2CC)C(C)=O)O1.[I-] | – | – | 0.28 | 92 | 7 | –
CCCCCCCCCCCCCC(=O)OC(CCCCCCCCCCC)CC(=O)OC1C(NC(=O)CC(CCCCCCCCCCC)OC(=O)CCCCCCCCCCC)C(OC2CC(OC(=O)CC(O)CCCCCCCCCCC)C(NC(=O)CC(O)CCCCCCCCCCC)C(O)O2)OC(CO)C1OP(=O)(O)O.CCCCCCCCCCCCCCCCCCNC(=O)OC[C@H]1C[C@H](COC(=O)N(Cc2cccc[n+]2CC)C(C)=O)O1.[I-] (stereo unspecified) | 53 | 12.7 | – | – | – | –
CCCCCCCCCCCCCC(=O)OC(CCCCCCCCCCC)CC(=O)OC1C(NC(=O)CC(CCCCCCCCCCC)OC(=O)CCCCCCCCCCC)C(OC2CC(OC(=O)CC(O)CCCCCCCCCCC)C(NC(=O)CC(O)CCCCCCCCCCC)C(O)O2)OC(CO)C1OP(=O)(O)O (stereo unspecified) | 100 | 24 | – | – | – | –
CCCCCCCCCCCCCCCCNC(=O)OC[C@@H]1C[C@@H](COC(=O)N(Cc2cccc[n+]2CC)C(C)=O)S1.[Cl-] | – | – | 0.16 | 92 | 7 | Survival ratio (Mus musculus [4]): 60; Survival ratio (Mus musculus [5]): 80; IC50 (Cavia porcellus [6]): 21 nM; Survival ratio (Mus musculus [7]): 60; Survival ratio (Mus musculus [8]): 73; Survival ratio (Mus musculus [9]): 60; Survival ratio (Mus musculus [10]): 100; Survival ratio (Mus musculus [11]): 100
C[C@@H]1C(=O)O[C@H]2C(O)[C@@]34[C@H]5C[C@@H](C(C)(C)C)[C@]36[C@@H](OC(=O)[C@@H]6O)O[C@@]4(C(=O)O5)[C@@]12O (single isomer, unassigned) [GINKOLIDE B] | – | – | – | – | – | IC50 [12]: 418 nM

From ChEMBL document CHEMBL1128151, “Synthesis and bioactivities of heterocyclic lipids as PAF antagonists. 2” (Bioorg Med Chem Lett, 1995)
